Measurements as given in PMC9405135, “Tuning the Biological Activity of Camphorimine Complexes through Metal Selection” (Antibiotics, 2022).
Like-named read-outs stand apart in the source and are kept apart here. One block for each compound: values may come before it.

How the values were obtained:
[1] = Reduction potential by cyclic voltammetry; format: physicochemical; set-up: E1/2red (reduction potential, footnote d): reference not given here; settings: Bu4NBF4/CH3CN electrolyte, ±10 mV; for Epred (reduction potential): versus SCE; for E1/2red (reduction potential, footnote d): half-wave potential, footnote d prints [28]
OVCAR3 cells [2] = test: MTT cytotoxicity, OVCAR3 ovarian cancer cells; settings: for IC50: read-out: IC50 OVCAR3; for SI = selectivity index = IC50(HDF)/IC50(OVCAR3): HDF versus OVCAR3, 24 h
ΦX174 supercoiled DNA [3] = tested on: ΦX174 supercoiled DNA; set-up: method as in PMID 31671298; settings: previously shown; cited from earlier work
A2780 cells = test: MTT cytotoxicity, A2780 ovarian cancer cells; settings: read-out: IC50 A2780, 24 h incubation
HDF fibroblasts = test: MTT cytotoxicity, HDF normal fibroblasts; settings: read-out: IC50 HDF, 24 h incubation
V79 fibroblasts = test: MTT cytotoxicity, V79 normal fibroblasts; settings: read-out: IC50 V79, 24 h incubation
OVCAR3 cells [4] = test: Metal distribution in single cells by nuclear microscopy (PIXE); format: cell-based, human; settings: 1 at 45 μM 24 h, 9 at 30 μM 3 h
Procedure: The distribution of copper and gold in treated cells was inspected by nuclear microscopy, making use of the PIXE technique to map and assess elemental contents in single cells. The nuclear microscopy techniques offer several advantages, regarding relatively high spatial resolution and sensitivity for a wide range of elements with physiological roles and those with pharmaceutical interest, in whole cells, while preserving most of their in vivo conditions.
OVCAR3 cells (ca. 1 × 10^6) were prepared for nuclear microscopy experiments by seeding the cells on a 100 nm thick silicon nitride membrane (Silson Ltd., Southam, UK), contained in six-well plates, and incubated overnight as described previously. Cells were incubated with complexes 1 and 9 at concentrations corresponding to the IC50 (45 μM for 24 h and 30 μM for 3 h, respectively). After incubation, the cells were analyzed at the nuclear microscopy facility of the C2TN/IST with a 2.0 MeV proton beam focused down to 3 × 4 µm^2 dimensions. Images of the micro-distributions of Cu and Au in OVCAR3 cells, as well as minor and trace physiological elements (e.g., P, S, K, and Fe), were obtained using the PIXE multielemental technique. Images of whole OVCAR3 cells were taken with 30 × 30 µm^2 scan sizes. Acquisition of data imaging and spectral analysis was performed using OMDAQ 2007 (Oxford Microbeams Ltd., Oxford, UK).

[5] = tested on: caspase-3/7 in OVCAR3 cells; test: Caspase-3/7 activation (Caspase-Glo 3/7 assay); format: cell-based, human; settings: OVCAR3, 24 h, concentrations below IC50
Procedure: Caspases are a family of cysteine proteases playing central roles in the regulation of cellular processes such as programmed cell death. Among them, caspase-3 and -7 are considered executioners of the apoptosis pathways. We investigated the possible activation of apoptotic events in OVCAR3 cells treated by camphorimine complexes 1, 5, and 9.
The activities of caspase-3 and -7 were assessed using the Caspase-Glo® 3/7 assay (Promega, Madison, WI, USA). The assay kit provides a proluminescent caspase-3/7 substrate (DEVD-aminoluciferin) and luciferase in a reagent optimized for caspase-3/7 activity, luciferase activity, and cell lysis. In the presence of caspase 3/7, this substrate is cleaved, and aminoluciferin is released and consumed by luciferase, which generates a luminescent signal proportional to the caspase activity present in the cells. The assay was carried out in a 96-well plate format with the OVCAR3 cells treated with complexes 1, 5, and 9 for 24 h at concentrations below their IC50 according to a previously described method. […] Results (mean ± SD) were expressed as relative luminescent units (RLU).

OVCAR3 cells [6] = test: Superoxide generation (NBT assay); format: cell-based, human; settings: 1 at 50 and 100 µM, 5 at 20 and 50 µM, 9 at 10 and 20 µM
Procedure: The ROS species superoxide (O2^•−) can be detected with NBT, a cell-permeant dye that can cross the cell membrane and be reduced by intracellular free radicals (superoxide anions) to form formazan particles, which can be detected as blue precipitates in the cells.
The nitro blue tetrazolium (NBT) assay was carried out adapting a previously described method. This assay was used to determine the ability of cells to produce superoxide anion upon treatment with the compounds. During the treatment, NBT is reduced by superoxide anion, resulting in dark-blue formazan particles. […] Then, the medium was discarded, and the blue formazan particles were dissolved in 200 μL of 90% DMSO (90% DMSO:10% NaOH 0.1 N with 0.1% SDS). The resulting NBT formazan was measured at 560 nm using a plate spectrophotometer.

[7] = Complex stability in cellular medium by UV/Vis spectroscopy; format: physicochemical; settings: DMSO, DMEM with 1% DMSO, DMEM with 1% DMSO + 10% FBS; 48 h
Procedure: The stability in cellular medium of the complexes was evaluated for 48 h, using UV/Vis spectroscopy. The absorption spectrum was recorded for each complex dissolved in (a) 100% DMSO, (b) colorless DMEM with 1% DMSO, and (c) colorless DMEM with 1% DMSO + 10% FBS [30]. […] As low concentrations were used in the biological studies, we expect that both the stability and the solubility were not impaired.

OVCAR3 cells [8] = test: Lipid peroxidation (MDA, TBARS) assay; format: cell-based, human; settings: OVCAR3 cells treated 6 h; 1 at 100 μM, 5 at 50 μM, 9 at 20 μM; mean ± SD
Procedure: Measurement of MDA relies on the detection of thiobarbituric acid (TBA)-reactive compounds generated from the decomposition of lipid peroxidation products. This reaction, which takes place under acidic conditions at 95 °C, results in the formation of an MDA–TBA adduct that can be quantified by its absorbance at 532 nm. […] Additionally, the MDA levels induced by the complexes correlated with the levels of ROS, pointing the involvement of ROS production in the mechanism of action of complexes under study and, consequently, the peroxidation of the membrane lipids, as supported by the correlation between the production of ROS and the levels of lipid peroxides, particularly for complexes 5 and 9.
The malondialdehyde (MDA) content in lipid extracts of OVCAR3 cells was measured using a colorimetric kit (BioVision, Milpitas, CA, USA), a method that relies on the reaction with thiobarbituric acid (TBARS assay). Briefly, OVCAR3 cells (5 × 10^5 cells/2 mL medium) were seeded in six-well plates and left to adhere for 24 h. […] The resulting cell pellet was treated following the kit recommended protocol. […] Then, 200 μL aliquots were then taken and transferred to a 96-well plate for MDA quantification at 532 nm. […]

ΦX174 supercoiled DNA [9] = test: Complex-DNA interaction, agarose gel electrophoretic mobility; format: binding; settings: 0.5-15 µM complex, 24 h at 37 °C
Procedure: Therefore, we focused our studies mostly on the silver (5 and 7) and gold complexes (8 and 9) having the monocamphor ligands ^1A and ^2A, respectively. Complex 1 was also included for comparison. We evaluated the complexes’ ability to interact with DNA, by visualizing in vitro conformational changes in ΦX174 supercoiled DNA using agarose gel electrophoresis assays.
The DNA binding activity of the metal complexes was assessed through their ability to alter the electrophoretic mobilities of the covalently closed circular (ccc) and open circular (oc) forms of ΦX174 supercoiled DNA as previously described. Briefly, a mixture containing 200 ng of ϕX174 DNA (Promega, Madison, WI, USA) and different concentrations of the metal complexes was prepared. After incubation for 24 h at 37 °C in the dark, the samples were run in a 0.8% agarose gel in TAE buffer for 3 h at 90 V. The gel obtained was then stained using a 3× GelRed® (Biotium, Fremont, CA, USA) solution in H2O and imaged in an AlphaImagerEP (Alpha Innotech, San Leandro, CA, USA).

OVCAR3 cells [10] = test: Intracellular ROS detection by H2DCF-DA; format: cell-based, human; settings: 1-4 at 10-100 µM, 5-9 at 0.1-50 µM, 1 h
Procedure: The molecular probe dichlorodihydrofluorescein diacetate (H2DCF-DA) was used to assess the levels of ROS, e.g., hydrogen peroxide, hydroxyl radicals, and peroxynitrite, generated in response to the effect of the complexes. This compound suffers oxidation and produces a fluorescent compound (DCF) in the presence of ROS [31]. The induction of intracellular ROS by the compounds (metal precursors and copper, silver, and gold complexes) was analyzed at λexc. = 492 nm 517 nm emission using a Varioskan LUX scanning multimode reader (Thermo Fisher Scientific).
Intracellular ROS levels, mainly H2O2, were measured using dihydro-2′7′dichlorofluorescein diacetate (H2DCF-DA). This cell-permeable molecular probe is de-esterified within the cell and turns to highly fluorescent 2′,7′-dichlorofluorescin (DCF) upon oxidation with ROS. For the assays, OVCAR3 cells (2 × 10^4 cells /well) were seeded in 96-well plates and left to adhere overnight. The medium was then replaced with a solution of 10 μM H2DCF-DA in colorless DMEM (FluoroBrite™ DMEM, Gibco®, Waltham, MA, USA) and cells were incubated at 37 °C for 30 min. […] DCF fluorescence was measured using a Varioskan Lux multimode microplate reader (ThermoFisher Scientific, Waltham, MA, USA) at 492 nm excitation and 517 nm emission. Results of fluorescence were expressed as the fold change in fluorescence levels compared with controls.

Compound: CC(=O)[O-].[Ag+] [Ag(CH3COO), silver acetate, reference compound]
- Epred (reduction potential) [1]: −0.043 Volt
- IC50 (OVCAR3 cells [2]; MTT, 24 h incubation): 3.38 ± 2 µM

Compound: O=[N+]([O-])[O-].[Ag+] [Ag(NO3), silver nitrate, reference compound]
- Epred (reduction potential) [1]: 0.18 Volt
- IC50 (OVCAR3 cells [2]): 2.66 ± 1 µM

Compound: N.N.[Cl][Pt][Cl] [cisplatin, reference compound]
- interaction with DNA (change of electrophoretic mobility) (ΦX174 supercoiled DNA [3]): bind to DNA and induce extensive electrophoretic mobility changes in DNA
- IC50 (A2780 cells): 21 ± 5 µM
- IC50 (OVCAR3 cells [2]; MTT, 24 h incubation): 13 ± 4.7 µM

Compound: [CuCl2((OC10H14N)2C6H4-p)] [Complex 2]
- E1/2red (reduction potential, footnote d) [1]: 0.48 ^d Volt
- IC50 (A2780 cells): 49.5 ± 14 µM
- IC50 (HDF fibroblasts): > 100 µM
- IC50 (V79 fibroblasts): > 100 µM
- SI = selectivity index = IC50(HDF)/IC50(OVCAR3) (OVCAR3 cells [2]): >3
- IC50 (OVCAR3 cells [2]; MTT, 24 h incubation): 37.6 ± 8.5 µM

The next lines start with results.

- E1/2red (reduction potential, footnote d) [1]: 0.58 ^d Volt
Compound: [Cl][Cu][Cl] [CuCl2, reference compound]
- IC50 (OVCAR3 cells [2]; MTT, 24 h incubation): > 100 µM

- Epred (reduction potential) [1]: −0.46 Volt
Compound: [Cl][Cu] [CuCl, reference compound]
- IC50 (OVCAR3 cells [2]; MTT, 24 h incubation): > 100 µM

- E1/2red (reduction potential, footnote d) [1]: 0.47 ^d Volt
Compound: [CuCl2(OC10H14NC6H5)]·HCl·½H2O [Complex 4]
- IC50 (A2780 cells): > 100 µM
- IC50 (HDF fibroblasts): > 100 µM
- IC50 (V79 fibroblasts): > 100 µM
- SI = selectivity index = IC50(HDF)/IC50(OVCAR3) (OVCAR3 cells [2]): >1
- IC50 (OVCAR3 cells [2]; MTT, 24 h incubation): 115 ± 25 µM

- Epred (reduction potential) [1]: −0.49 Volt
- stability in cellular medium (UV/Vis spectra) [7]: slightly lower
Compound: [{CuCl}2{OC10H14N(C6H4NH2)}] [Complex 1]
- cellular distribution of the metal (OVCAR3 cells [4]): uncharacteristic map of copper distribution
- caspase-3/7 activation [5]: low caspase activation
- superoxide ROS levels (NBT reduction) (OVCAR3 cells [6]): increased the ROS levels in a dose-dependent manner
- IC50 (A2780 cells): 45.6 ± 11 µM
- MDA (lipid peroxide content) (OVCAR3 cells [8]): 290 ± 15 pmoles/10^6 Cells
- interaction with DNA (change of electrophoretic mobility) (ΦX174 supercoiled DNA [9]): none of them interacted significantly with DNA
- IC50 (HDF fibroblasts): 116 ± 27 µM
- IC50 (V79 fibroblasts): 34.5 ± 9.7 µM
- production of ROS (H2DCF-DA, relative to untreated cells) (OVCAR3 cells [10]): followed a similar trend
- SI = selectivity index = IC50(HDF)/IC50(OVCAR3) (OVCAR3 cells [2]): 1.6
- IC50 (OVCAR3 cells [2]; MTT, 24 h incubation): 72.4 ± 9.1 µM

- E1/2red (reduction potential, footnote d) [1]: −0.46 ^d Volt
Compound: [{CuCl}3{(OC10H14N)2,μ-C6H4-p)}] [Complex 3]
- IC50 (A2780 cells): 43.1 ± 9.1 µM
- IC50 (HDF fibroblasts): 48.3 ± 27 µM
- IC50 (V79 fibroblasts): 44.9 ± 10 µM
- SI = selectivity index = IC50(HDF)/IC50(OVCAR3) (OVCAR3 cells [2]): 1.3
- IC50 (OVCAR3 cells [2]; MTT, 24 h incubation): 37.5 ± 7.7 µM
